Measurements: ChEMBL document CHEMBL1159287, “Effect of anthraquinone derivatives on lipid peroxidation in rat heart mitochondria: structure-activity relationship” (J Nat Prod, 1995)
Calls of active or inactive are those of the source. The calls are words filed in the database; no cut-off is given here.

Columns and labels:
Rattus norvegicus [1] = species on record: Rattus norvegicus; assay: Inhibition of lipid peroxidation in Sprague-Dawley rat heart mitochondria assessed as inhibition of FeSO4-induced oxygen consumption up to 0.3 mM relative to control; type: functional; parameters: scale not given: the % may be the effect or the level left
Rattus norvegicus [2] = species on record: Rattus norvegicus; assay: Inhibition of lipid peroxidation in Sprague-Dawley rat heart mitochondria assessed as inhibition of FeSO4-induced malondialdehyde formation up to 0.3 mM relative to control; type: functional; parameters: scale not given: the % may be the effect or the level left
[3] = Inhibition of lipid peroxidation in Sprague-Dawley rat heart mitochondria assessed as inhibition of FeSO4-induced oxygen consumption; type: functional
[4] = Inhibition of lipid peroxidation in Sprague-Dawley rat heart mitochondria assessed as inhibition of FeSO4-induced malondialdehyde formation; type: functional
[5] = system: Radical scavenging activity; assay: Antioxidant activity assessed as DPPH radical scavenging activity after 90 mins; type: functional
Rattus norvegicus [6] = species on record: Rattus norvegicus; assay: Antioxidant activity in Sprague-Dawley rat heart mitochondria assessed as inhibition of conjugated diene formation at 1 to 300 uM; type: functional
PBMC = assay: Inhibition of thymidine uptake in phytohemagglutininin-stimulated human PBMC; type: functional, cell-based

| Structure (SMILES) | Activity (Rattus norvegicus [1]) | Activity (Rattus norvegicus [2]) | IC50 [3] | IC50 [4] | other results |
| --- | --- | --- | --- | --- | --- |
| O=C(O)c1ccc2c(c1)C(=O)c1ccccc1C2=O | < 50% | < 50% | – | – | – |
| O=C(O[C@@H]1Cc2c(O)cc(O)cc2O[C@H]1c1cc(O)c(O)c(O)c1)c1cc(O)c(O)c(O)c1 [GALLOCATECHIN GALLATE] | – | – | 14 µM | 8.6 µM | – |
| Nc1cccc2c1C(=O)c1ccccc1C2=O | < 50% | < 50% | – | – | – |
| Oc1cc(O)c2c(c1)O[C@H](c1ccc(O)c(O)c1)[C@H](O)[C@H]2c1c(O)cc(O)c2c1O[C@H](c1ccc(O)c(O)c1)[C@H](O)C2 [PROCYANIDIN B2] | – | – | 11 µM | 9 µM | – |
| O=C1c2ccccc2C(=O)c2c1ccc(O)c2O [ATHRAQUINONES A] | – | – | 63.9 µM | 49.5 µM | Activity [5]: Active |
| Cc1c(C)c2c(c(C)c1O)CC[C@@](C)(CCC[C@H](C)CCC[C@H](C)CCCC(C)C)O2 [ALPHA-TOCOPHEROL] | – | – | 102 µM | 94.7 µM | Activity [5]: Active |
| O=C1c2ccccc2C(=O)c2ccccc21 | < 50% | < 50% | – | – | – |
| Cc1cc(O)c2c(c1)C(=O)c1cccc(O)c1C2=O | < 50% | < 50% | – | – | – |
| Cc1cc(O)c2c(c1)C(=O)c1cc(O)cc(O)c1C2=O [EMODIN] | – | – | 12.5 µM | 16.8 µM | Activity [5]: inactive; Activity (Rattus norvegicus [6]): inactive |
| O=C1OC[C@H]2OC(O)[C@@H]3OC(=O)c4cc(O)c(O)c(O)c4-c4c(cc(O)c(O)c4O)C(=O)O[C@H]3[C@@H]2OC(=O)c2cc(O)c(O)c(O)c2-c2c1cc(O)c(O)c2O (stereo partly drawn) [PEDUNCULAGIN] | – | – | 7.8 µM | 12 µM | – |
| O=C(O[C@@H]1Cc2c(O)cc(O)cc2O[C@@H]1c1cc(O)c(O)c(O)c1)c1cc(O)c(O)c(O)c1 [EPIGALOCATECHIN GALLATE] | – | – | 12.2 µM | 9.4 µM | – |
| COc1cc(O)c2c(c1)C(=O)c1cc(C)cc(O)c1C2=O | < 50% | < 50% | – | – | – |
| O=C1c2ccc(O)cc2C(=O)c2ccc(O)cc21 | < 50% | < 50% | – | – | Activity (PBMC): Active |
| Nc1ccc2c(c1)C(=O)c1ccccc1C2=O | < 50% | < 50% | – | – | – |
| O=C1c2cccc(O)c2C(=O)c2cccc(O)c21 | < 50% | < 50% | – | – | – |
| O=C(O[C@@H]1Cc2c(O)cc(O)cc2O[C@@H]1c1ccc(O)c(O)c1)c1cc(O)c(O)c(O)c1 [EPICATECHIN GALLATE] | – | – | 8.4 µM | 5.4 µM | – |
| CCc1ccc2c(c1)C(=O)c1ccccc1C2=O | < 50% | < 50% | – | – | – |
| Cc1cc(O)c2c(c1)C(=O)c1cc(O)cc(O[C@@H]3O[C@H](CO)[C@@H](O)[C@H](O)[C@H]3O)c1C2=O | < 50% | < 50% | – | – | – |
| COc1cc(O[C@@H]2O[C@H](CO)[C@@H](O)[C@H](O)[C@H]2O)c2c(c1)C(=O)c1cc(C)cc(O)c1C2=O | < 50% | < 50% | – | – | – |
